Test results: patent US6908943B2, “Use of γ-tocopherol and its oxidative metabolite LLU-α in the treatment of disease” (Loma Linda University Medical Center, priority 1998, dated 2005)
“And” between values parts separate entries of the source, which are not always exact repeats. Equal values may be shown once. “Also recorded” adds a separate entry of the source.

Assays:
[1] = test system: tumor cells derived from a spontaneously arising mammary tumor; assay: Tumor formation in mice injected with mammary tumor cells; assay type: in vivo; conditions: 20 mg/kg, 21 days after tumor cell injection, versus untreated tumor-induced control mice
Source text: Four groups of mice are used in the study: (1) control mice in which tumor formation is not induced but treatment with a formulation of γ-tocopherol 75% (weight to weight) and LLU-α 25% (weight to weight) is rendered; (2) control mice in which tumor formation is induced and treatment is not rendered; (3) experimental mice in which tumor formation is induced and treatment with γ-tocopherol 75% (weight to weight) is rendered; and (4) experimental mice in which tumor formation is induced and treatment with a formulation of γ-tocopherol 75% (weight to weight) and LLU-α 25% (weight to weight) is rendered. As a further control, mice in which tumor formation is induced are treated with varying concentrations of α-tocopherol so as to evaluate the relative effectivity of γ-tocopherol and the formulation of γ-tocopherol and LLU-α, as compared to α-tocopherol.
Mice which receive treatment with γ-tocopherol or a formulation of γ-tocopherol and LLU-α, as described above, are given 20 mg/kg of supplement for a period of 2-4 weeks. Tumor cells derived from a spontaneously arising mammary tumor are then injected into the thigh area of the experimental mice to induce tumor formation. Treatment with γ-tocopherol and the formulation of γ-tocopherol and LLU-α is continued according to the protocol above. After 21 days, the mean volume of tumors in the mice is determined and compared.

[2] = test system: conscious rats; assay: In vivo bioassay for natriuresis in conscious rats; design: species or system rat; conditions: for Natriuretic Response (R): R > 0.67 = active
Experimental: The assay for natriuresis in conscious rats has been described previously (see Benaksas et al., above). The assay is briefly reiterated here. Female Sprague-Dawley (Harlan) rats (200-250 g) were cannulated in the femoral artery and vein for monitoring of mean arterial pressure (MAP) and Infusion of saline and samples, respectively. The bladder was catheterized for collection of urine in ten-minute periods. Furosemide (0.4 mg/kg bwt; 1 mg/mL in 0.17% saline) was infused as a positive control at the beginning of the sixth ten-minute period. The sample was infused at the beginning of the seventeenth ten-minute period. Urine was collected for another 150 minutes. The volume of the urine was determined gravimetrically and the Na^+ and K^+ concentrations determined with a Beckman E2A electrolyte analyzer.
The natriuretic response of a sample was normalized to the dose of furosemide infused. The not sodium excretion for the Infusion of furosemide or sample was calculated as follows. The median sodium excretion value (μmoles Na^+/10 minute period) for the five periods before infusion of furosemide or sample was used to establish a baseline value for the calculation of ΔUNaV (=μmoles Na^+ period—baseline μmoles Na^+) for administration of either furosemide or sample respectively. The sum of ΔUNaV for the four periods following infusion of furosemide was the net sodium excreted for furosemide, defined as FR. The sum of ΔUNaV for the fifteen periods following infusion of the sample was the net sodium excreted for the sample defined as SR. The natriuretic ratio Rn (or normalized natriuretic response) of a sample was calculated by dividing SR by FR (Rn=SR/FR). A sample is considered natriuretically active if the Rn value for that sample was greater than or equal to 0.67 (greater than 99% confidence limits).

[3] = target: T1, Na+/K+-ATPase (Bos taurus, UniProt Q08DA1); assay: Na+/K+-ATPase inhibition assay (86Rb+ uptake) in MDBK cells; assay type: cell-based, bovine; conditions: 0.2-200 ng/well
T1 construct: host or cells: MDBK (Madin-Darby bovine kidney) cells
Experimental: The assay in MDBK cells has been described previously (see Benaksas at al., above). The assay is described briefly here. Madin-Darby bovine kidney (MDBK) cells (ATCC:CCL22) were maintained in Dulbecco's Modified Eagle's Medium (DMEM) with 5% Fetal Bovine Serum and 5% Bovine Calf Serum in a 5% CO2/95% humidified air atmosphere at 37° C. and split (1:2) once per week.
One day before the assay, cells were plated in a 96-well plate at a density of 5×10^5 cells/well in DMEM with serum. On the day of the assay the medium was removed and the cells washed with phosphate buffered saline (PBS) before addition of 100 μL of assay media (122 mM NaCl, 1.8 mM CaCl2, 0.8 mM MgSO4, 24 mM NaHCO3, 1 mM sodium pyruvate, 25 mM glucose, 14 mM glycylglycine, 0.2% phenol red, 8 mM Na2HPO4 1.15 mM KH2PO4, pH 8.0) and 100 μl of sample. The plate was preincubated for 30 minutes at 37° C., then chilled on ice for 10 minutes. To each well was added 0.15 μCi ^86RbCl (Amersham) in 10 μL of assay media. The plate was then incubated at 37° C. for 10 minutes. A portion (100 μL) of the supernatant was counted with 0.5 mL of scintillation cocktail in a liquid scintillation counter. As a control for Na^+/K^+-ATPase inhibition, a dose response curve for ouabain in the range of 10^−5-10^−8 M was obtained. Intra-experiment coefficient of variation for ouabain was 3-15%. […]

[4] = Chemical characteristics / stability of the natriuretic LLUs; assay type: physicochemical

## Cc1c(O)cc2c(c1C)O[C@](C)(CCC[C@H](C)CCC[C@H](C)CCCC(C)C)CC2 [γ-tocopherol]
[1]
  mean volume of tumors: less than the mean volume of tumors in the control mice

## Cc1c(O)cc2c(c1C)OC(C)(CCC(=O)O)CC2 (racemic) [LLU-α, 6-hydroxy-2,7,8-trimethylchroman-2-propanoic acid]
[2]; 8 μg/kg, further purified on acetic acid/acetonitrile RP-HPLC (seventh step)
  natriuretic activity: active
[2]; after infusion, conscious rat
  kaliuresis (potassium excretion): no detectable kaliuresis
[2]; infusion, conscious rat
  change in mean arterial pressure: Neither LLU-α nor -γ caused a significant Change; also recorded: does not cause a significant change
  effect on blood pressure: no effect on blood pressure
  natriuresis when infused into the rat: sustained natriuresis
[2]; partially purified (sixth step), doses below or above 4-8 μg/kg
  natriuretic activity at lower or higher doses: no activity
[2]; partially purified from silica gel-HPLC (sixth purification step)
  dose range with natriuretic activity: 4 to 8 µg/kg
[2]; shape of curve (Table III)
  natriuretic dose-response curve: narrow and biphasic
[2]; silica gel HPLC fraction 17, dose 0.2 μg, infused in conscious rat
  Natriuretic Response (R): −0.14
[2]; silica gel HPLC fraction 17, dose 1 μg
  Natriuretic Response (R): 0.27
[2]; silica gel HPLC fraction 17, dose 2 μg
  Natriuretic Response (R): 1.14 and 0.75
[2]; silica gel HPLC fraction 17, dose 10 μg
  Natriuretic Response (R): 0.26
[2]; silica gel HPLC fraction 18, dose 22.4 μg
  Natriuretic Response (R): 0.02
[2]; silica gel HPLC fraction 18, dose 56.4 μg
  Natriuretic Response (R): 0.23
[2]; silica gel HPLC fraction 19, dose 0.2 μg
  Natriuretic Response (R): 0.24
[2]; silica gel HPLC fraction 19, dose 1 μg
  Natriuretic Response (R): 0.93
[2]; silica gel HPLC fraction 19, dose 10 μg
  Natriuretic Response (R): 0.09
[2]; without a corresponding increase in potassium excretion
  sodium excretion in the urine in mammals: capable of increasing sodium excretion
[3]
  Na+/K+-ATPase inhibition: no inhibition
[4]; CDCl3
  Physical Properties: stability in CDCl3: Unstable in
[4]; dilute base
  Physical Properties: stability in dilute base: instability; also recorded: Unstable in

## Cc1c(C)c2c(c(C)c1O)CCC(C)(CCC(=O)O)O2 (racemic) [Example 12, 2,5,7,8-tetramethyl-2-(β-carboxyethyl)-6-hydroxy chroman]
other
  melting point: 173 °C
